{"source": "ChEMBL document CHEMBL4376847", "about": "“Aryl Trehalose Derivatives as Vaccine Adjuvants for Mycobacterium tuberculosis” (J Med Chem, 2020)", "key": {"[1]": {"target": "T1, C-type lectin domain family 4 member E (Homo sapiens) (UniProt Q9ULY5)", "T1 sequence (whole entry)": "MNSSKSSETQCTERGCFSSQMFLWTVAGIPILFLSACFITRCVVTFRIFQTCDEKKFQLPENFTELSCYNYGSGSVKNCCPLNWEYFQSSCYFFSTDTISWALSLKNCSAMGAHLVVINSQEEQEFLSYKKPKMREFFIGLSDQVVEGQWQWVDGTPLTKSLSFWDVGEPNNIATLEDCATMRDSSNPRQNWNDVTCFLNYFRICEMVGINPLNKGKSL", "assay": "Agonist activity at Mincle in human PBMC assessed as increase in TNF-alpha production at 1 to 1000 uM incubated for 18 to 24 hrs by ELISA"}, "[2]": {"target": "T1, C-type lectin domain family 4 member E (Homo sapiens)", "assay": "Agonist activity at Mincle in human PBMC assessed as increase in IL-6 secretion at 0.1 to 100 uM incubated for 18 to 24 hrs by luminex multiplex assay"}, "[3]": {"target": "T1, C-type lectin domain family 4 member E (Homo sapiens)", "assay": "Agonist activity at Mincle in human PBMC assessed as increase in IL-1beta secretion at 0.1 to 100 uM incubated for 18 to 24 hrs by luminex multiplex assay"}, "[4]": {"target": "T1, C-type lectin domain family 4 member E (Homo sapiens)", "assay": "Agonist activity at Mincle in human PBMC assessed as increase in IL-23 at 0.1 to 100 uM incubated for 18 to 24 hrs by luminex multiplex assay"}, "[5]": {"target": "T1, C-type lectin domain family 4 member E (Homo sapiens)", "assay": "Agonist activity at Mincle in human PBMC assessed as increase in TNF-alpha level at 0.1 to 100 uM incubated for 18 to 24 hrs by luminex multiplex assay"}, "[6]": {"target": "T1, C-type lectin domain family 4 member E (Homo sapiens)", "assay": "Agonist activity at human Mincle receptor expressed in human HEK cells assessed as NF-kappaB activation incubated for 24 hrs by SEAP reporter gene assay", "assay_type": "cell-based"}, "[7]": {"target": "T2, C-type lectin domain family 4 member E (Mus musculus) (UniProt Q9R0Q8)", "T2 sequence (whole entry)": "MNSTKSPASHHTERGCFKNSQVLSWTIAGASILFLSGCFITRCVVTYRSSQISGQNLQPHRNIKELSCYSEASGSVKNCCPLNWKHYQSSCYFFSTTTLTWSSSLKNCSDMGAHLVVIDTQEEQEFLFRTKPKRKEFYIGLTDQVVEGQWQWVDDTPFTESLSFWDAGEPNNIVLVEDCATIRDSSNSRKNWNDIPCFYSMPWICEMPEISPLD", "assay": "Agonist activity at mouse Mincle receptor expressed in human HEK cells assessed as NF-kappaB activation incubated for 24 hrs by SEAP reporter gene assay", "assay_type": "cell-based"}, "Mus musculus [8]": {"tested_on": "Mus musculus", "assay": "Immuno-adjuvant activity in M72-immunized BALB/c mouse assessed as potentiation of antibody response to M72 by measuring serum anti-M72 IgG level at 10 nmol, im administered immediately and day 14 and measured after 14 days by ELISA", "assay_type": "functional, organism-based"}, "Mus musculus [9]": {"tested_on": "Mus musculus", "assay": "Immuno-adjuvant activity in M72-immunized BALB/c mouse assessed as potentiation of antibody response to M72 by measuring serum anti-M72 IgG1 level at 10 nmol, im administered immediately and 14 and measured after 14 days by ELISA", "assay_type": "functional, organism-based"}, "Mus musculus [10]": {"tested_on": "Mus musculus", "assay": "Immuno-adjuvant activity in M72-immunized BALB/c mouse assessed as potentiation of antibody response to M72 by measuring serum anti-M72 IgG2a level at 10 nmol, im administered immediately and 14 and measured after 14 days by ELISA", "assay_type": "functional, organism-based"}, "Mus musculus [11]": {"tested_on": "Mus musculus", "assay": "Immuno-adjuvant activity in M72-immunized BALB/c mouse assessed as potentiation of antibody response to M72 by measuring CD4+ IL-17A T-cells at 2 to 50 nmol, im administered immediately and 14 and measured after 5 days by immuno staining based flow cytometry", "assay_type": "functional, organism-based"}, "Mus musculus [12]": {"tested_on": "Mus musculus", "assay": "Immuno-adjuvant activity in M72-immunized BALB/c mouse assessed as potentiation of antibody response to M72 by measuring IFNgamma at 2 to 50 nmol, im administered immediately and 14 and measured after 5 days by immuno staining based flow cytometry", "assay_type": "functional, organism-based"}, "Mus musculus [13]": {"tested_on": "Mus musculus", "assay": "Immuno-adjuvant activity in M72-immunized BALB/c mouse assessed as potentiation of antibody response to M72 by measuring IL-5 at 2 to 50 nmol, im administered immediately and 14 and measured after 5 days by immuno staining based flow cytometry", "assay_type": "functional, organism-based"}, "[14]": {"target": "T2, C-type lectin domain family 4 member E (Mus musculus)", "assay": "Agonist activity at Mincle in mouse RAW264.7 cells assessed as TNF-alpha secretion at 0.1 to 100 uM incubated for 18 to 24 hrs by ELISA", "assay_type": "cell-based"}, "[15]": {"target": "T2, C-type lectin domain family 4 member E (Mus musculus)", "assay": "Agonist activity at Mincle in mouse RAW264.7 cells assessed as IL-6 production at 0.1 to 100 uM incubated for 18 to 24 hrs by ELISA", "assay_type": "cell-based"}, "[16]": {"target": "T1, C-type lectin domain family 4 member E (Homo sapiens)", "assay": "Agonist activity at Mincle in human PBMC assessed as TNF-alpha secretion at 0.1 to 100 uM incubated for 18 to 24 hrs by ELISA"}, "Mus musculus [17]": {"tested_on": "Mus musculus", "assay": "Immuno-adjuvant activity in B42-immunized BALB/c mouse assessed as potentiation of antibody response to B42 by measuring CD4+ IL-17A T-cells at 2 to 50 nmol, im administered immediately and 14 and measured after 5 days by immuno staining based flow cytometry", "assay_type": "functional, organism-based"}}, "note": "The source made the active and inactive calls. The calls are words filed in the database; no cut-off is given here.", "data": [{"smiles": "COc1cc(C)c(C(=O)OC[C@H]2O[C@H](O[C@H]3O[C@H](COC(=O)c4c(C)cc(OC)cc4OC)[C@@H](O)[C@H](O)[C@H]3O)[C@H](O)[C@@H](O)[C@@H]2O)c(OC)c1", "values": [{"measurement": "Activity", "setting": "[1]", "result": "Active"}, {"measurement": "Activity", "setting": "[2]", "result": "Active"}, {"measurement": "Activity", "setting": "[3]", "result": "Active"}, {"measurement": "Activity", "setting": "[4]", "result": "Active"}, {"measurement": "Activity", "setting": "[5]", "result": "Active"}]}, {"smiles": "CCCCCCCCCCCCCCCCCCCCCCC(C(=O)OC[C@H]1O[C@H](O[C@H]2O[C@H](COC(=O)C(CCCCCCCCCCCCCCCCCCCCCC)C(O)CCCCCCCCCCCCCCCCCC3CC3CCCCCCCCCCCCCCC3CC3CCCCCCCCCCCCCCCCCC)[C@@H](O)[C@H](O)[C@H]2O)[C@H](O)[C@@H](O)[C@@H]1O)C(O)CCCCCCCCCCCCCCCCCC1CC1CCCCCCCCCCCCCCC1CC1CCCCCCCCCCCCCCCCCC", "note": "(some centres not stated)", "values": [{"measurement": "Activity", "setting": "[6]", "result": "inactive"}, {"measurement": "Activity", "setting": "[7]", "result": "inactive"}]}, {"smiles": "CCCCCCCC(CCCCCCC)C(=O)OC[C@H]1O[C@H](O[C@H]2O[C@H](COC(=O)C(CCCCCCC)CCCCCCC)[C@@H](O)[C@H](O)[C@H]2O)[C@H](O)[C@@H](O)[C@@H]1O", "values": [{"measurement": "Activity", "setting": "Mus musculus [8]", "result": "Active"}, {"measurement": "Activity", "setting": "Mus musculus [9]", "result": "Active"}, {"measurement": "Activity", "setting": "Mus musculus [10]", "result": "Active"}]}, {"smiles": "CC(C)(C)c1cc(C(=O)OC[C@H]2O[C@H](O[C@H]3O[C@H](COC(=O)c4cc(C(C)(C)C)cc(C(C)(C)C)c4O)[C@@H](O)[C@H](O)[C@H]3O)[C@H](O)[C@@H](O)[C@@H]2O)c(O)c(C(C)(C)C)c1", "values": [{"measurement": "Activity", "setting": "[1]", "result": "Active"}, {"measurement": "Activity", "setting": "[2]", "result": "Active"}, {"measurement": "Activity", "setting": "[3]", "result": "Active"}, {"measurement": "Activity", "setting": "[4]", "result": "Active"}, {"measurement": "Activity", "setting": "[5]", "result": "Active"}, {"measurement": "Activity", "setting": "[6]", "result": "Dose-dependent effect"}, {"measurement": "Activity", "setting": "[7]", "result": "Dose-dependent effect"}, {"measurement": "Activity", "setting": "Mus musculus [8]", "result": "inactive"}, {"measurement": "Activity", "setting": "Mus musculus [9]", "result": "inactive"}, {"measurement": "Activity", "setting": "Mus musculus [10]", "result": "Active"}, {"measurement": "Activity", "setting": "Mus musculus [11]", "result": "Active"}, {"measurement": "Activity", "setting": "Mus musculus [12]", "result": "inactive"}, {"measurement": "Activity", "setting": "Mus musculus [13]", "result": "inactive"}]}, {"smiles": "COc1ccc(/C=C/C(=O)OC[C@H]2O[C@H](O[C@H]3O[C@H](COC(=O)/C=C/c4ccc(OC)c(OC)c4)[C@@H](O)[C@H](O)[C@H]3O)[C@H](O)[C@@H](O)[C@@H]2O)cc1OC", "values": [{"measurement": "Activity", "setting": "[1]", "result": "Active"}, {"measurement": "Activity", "setting": "[2]", "result": "Active"}, {"measurement": "Activity", "setting": "[3]", "result": "Active"}, {"measurement": "Activity", "setting": "[4]", "result": "Active"}, {"measurement": "Activity", "setting": "[5]", "result": "Active"}]}, {"smiles": "CCOc1cc(OCC)cc(C(=O)OC[C@H]2O[C@H](O[C@H]3O[C@H](COC(=O)c4cc(OCC)cc(OCC)c4)[C@@H](O)[C@H](O)[C@H]3O)[C@H](O)[C@@H](O)[C@@H]2O)c1", "values": [{"measurement": "Activity", "setting": "[1]", "result": "Active"}, {"measurement": "Activity", "setting": "[2]", "result": "Active"}, {"measurement": "Activity", "setting": "[3]", "result": "Active"}, {"measurement": "Activity", "setting": "[4]", "result": "Active"}, {"measurement": "Activity", "setting": "[5]", "result": "Active"}]}, {"smiles": "CC(C)(C)c1ccc(O)c(C(=O)OC[C@H]2O[C@H](O[C@H]3O[C@H](COC(=O)c4cc(C(C)(C)C)ccc4O)[C@@H](O)[C@H](O)[C@H]3O)[C@H](O)[C@@H](O)[C@@H]2O)c1", "values": [{"measurement": "Activity", "setting": "[14]", "result": "Active"}, {"measurement": "Activity", "setting": "[15]", "result": "inactive"}, {"measurement": "Activity", "setting": "[16]", "result": "Active"}]}, {"smiles": "CCCCCCCCCCCCCCCCCCCCCC(=O)OC[C@H]1O[C@H](O[C@H]2O[C@H](COC(=O)CCCCCCCCCCCCCCCCCCCCC)[C@@H](O)[C@H](O)[C@H]2O)[C@H](O)[C@@H](O)[C@@H]1O", "values": [{"measurement": "Activity", "setting": "[6]", "result": "inactive"}, {"measurement": "Activity", "setting": "[7]", "result": "inactive"}, {"measurement": "Activity", "setting": "Mus musculus [10]", "result": "Active"}, {"measurement": "Activity", "setting": "Mus musculus [11]", "result": "Active"}, {"measurement": "Activity", "setting": "Mus musculus [17]", "result": "Active"}, {"measurement": "Activity", "setting": "Mus musculus [12]", "result": "inactive"}, {"measurement": "Activity", "setting": "Mus musculus [13]", "result": "inactive"}]}, {"smiles": "CC(C)(C)c1cc(C(C)(C)C)c(O)c(C(=O)OC[C@H]2O[C@H](O[C@H]3O[C@H](COC(=O)c4c(O)c(C(C)(C)C)cc(C(C)(C)C)c4O)[C@@H](O)[C@H](O)[C@H]3O)[C@H](O)[C@@H](O)[C@@H]2O)c1O", "values": [{"measurement": "Activity", "setting": "[14]", "result": "Active"}, {"measurement": "Activity", "setting": "[15]", "result": "inactive"}, {"measurement": "Activity", "setting": "[16]", "result": "Active"}]}, {"smiles": "COc1cc(/C=C/C(=O)OC[C@H]2O[C@H](O[C@H]3O[C@H](COC(=O)/C=C/c4cc(OC)c(OC)c(OC)c4)[C@@H](O)[C@H](O)[C@H]3O)[C@H](O)[C@@H](O)[C@@H]2O)cc(OC)c1OC", "values": [{"measurement": "Activity", "setting": "[1]", "result": "Active"}, {"measurement": "Activity", "setting": "[2]", "result": "Active"}, {"measurement": "Activity", "setting": "[3]", "result": "Active"}, {"measurement": "Activity", "setting": "[4]", "result": "Active"}, {"measurement": "Activity", "setting": "[5]", "result": "Active"}]}, {"smiles": "CC(C)(C)c1cc(C(=O)OC[C@H]2O[C@H](O[C@H]3O[C@H](COC(=O)c4cc(C(C)(C)C)cc(C(C)(C)C)c4)[C@@H](O)[C@H](O)[C@H]3O)[C@H](O)[C@@H](O)[C@@H]2O)cc(C(C)(C)C)c1", "values": [{"measurement": "Activity", "setting": "[14]", "result": "Active"}, {"measurement": "Activity", "setting": "[15]", "result": "inactive"}, {"measurement": "Activity", "setting": "[16]", "result": "Active"}]}, {"smiles": "CC(C)(C)c1cc(C(=O)OC[C@H]2O[C@H](O[C@H]3O[C@H](COC(=O)c4cc(C(C)(C)C)c(O)c(C(C)(C)C)c4)[C@@H](O)[C@H](O)[C@H]3O)[C@H](O)[C@@H](O)[C@@H]2O)cc(C(C)(C)C)c1O", "values": [{"measurement": "Activity", "setting": "[14]", "result": "Active"}, {"measurement": "Activity", "setting": "[15]", "result": "inactive"}, {"measurement": "Activity", "setting": "[16]", "result": "Active"}]}]}
